# Measurements as given in ChEMBL document CHEMBL1158963, “Taxinine M, a new tetracyclic taxane from Taxus brevifolia” (J Nat Prod, 1991).
# Assay: Toxicity in brine shrimp after 24 hrs
# Type: organism-based
# Settings: artemia, in vivo
row,Compound,LC50 at 24 h [µg/mL]
1,C/C=C(\C)C(=O)N[C@@H](c1ccccc1)[C@@H](O)C(=O)O[C@H]1C[C@@]2(O)[C@@H](OC(=O)c3ccccc3)[C@@H]3[C@]4(OC(C)=O)CO[C@@H]4C[C@H](O)[C@@]3(C)C(=O)[C@H](OC(C)=O)C(=C1C)C2(C)C [CEPHALOMANNINE],0.81
2,CC(=O)O[C@H]1C(=O)[C@@]2(C)[C@H]([C@H](OC(=O)c3ccccc3)[C@]3(O)C[C@H](OC(=O)[C@H](O)[C@@H](NC(=O)c4ccccc4)c4ccccc4)C(C)=C1C3(C)C)[C@]1(OC(C)=O)CO[C@@H]1C[C@@H]2O [PACLITAXEL],0.28
3,C=C1[C@@H](O)C[C@H](OC(C)=O)[C@@]2(COC(=O)c3ccccc3)[C@@H](OC(C)=O)[C@H](OC(C)=O)[C@@]3(O)[C@]4(C)OC[C@]3(C)C(CC4=O)[C@@H](OC(C)=O)[C@H]12 [TAXININE M],620
